Reference: US20250041308A1, “BRUTON'S TYROSINE KINASE INHIBITORS AS ANTIVIRAL AGENTS” (University of Florida Research Foundation, Incorporated, priority 2022, published 2025)

Columns and labels:
Format in all cases: cell-based, Epstein-Barr virus (EBV)
[1] = test system: ZEBRA and cleaved caspase 1 in EBV-positive Mutu-I Burkitt lymphoma cells; experiment: Immunoblotting for ZEBRA, procaspase 1 and cleaved caspase 1 in Mutu-I cells induced with sodium butyrate; details: 1 μM for 2 hours before sodium butyrate for 24 hours, FIG. 7
Description: Cells were harvested and subjected to immunoblotting with monoclonal antibodies to ZEBRA, procaspase 1, cleaved caspase 1, or the control protein β-actin to analyze protein expression. […] Cleavage of caspase is a marker for programmed cell death.

[2] = test system: EBV lytic cycle proteins ZEBRA and EA-D in EBV-positive HH514-16 Burkitt lymphoma cell line; experiment: Immunoblotting for ZEBRA and EA-D in HH514-16 cells induced with sodium butyrate
Description: Cells were harvested and subjected to immunoblotting with monoclonal antibodies to ZEBRA and EA-D (Early antigen-diffuse). EA-D is useful in the diagnosis of acute Epstein-Barr virus (EBV) infection and EBV reactivation and functions downstream of ZEBRA.
Cells were harvested and subjected to immunoblotting with monoclonal antibodies to ZEBRA or the control protein β-actin to analyze protein expression.

[3] = test system: EBV lytic cycle (ZEBRA) in EBV-positive Mutu-I Burkitt lymphoma cells; experiment: Flow cytometry for ZEBRA in Mutu-I cells, lytic cycle induced with sodium butyrate; details: sodium butyrate 24 hours, 2 h pretreatment
Description: Cells were harvested, fixed and permeabilized, stained with a monoclonal antibody to the viral latent-to-lytic switch protein ZEBRA, and examined by flow cytometry. Cells were stained in parallel with an isotype-matched control antibody for placement of gates. […] Decreasing EBV switching to lytic phase decreases the risk of the B cells developing lymphoma.

[4] = test system: EBV lytic cycle (ZEBRA) in EBV-positive Akata Burkitt lymphoma cell line; experiment: Flow cytometry for ZEBRA in Akata cells, lytic cycle induced with rabbit-anti human IgG; details: for Percent positive cells ZEBRA: Rabbit anti-human IgG induction 24 h, 2 h pretreatment
Description: Akata cells are an EBV-producer line established from a patient with Burkitt's lymphoma. Akata cells produce transforming virus upon treatment of cells with anti-immunoglobulin antibodies. Cells were harvested, fixed and permeabilized, stained with a monoclonal antibody to the viral latent-to-lytic switch protein ZEBRA (Z EBV Replication Activator), and examined by flow cytometry. Cells were stained in parallel with an isotype-matched control antibody for placement of gates.

[5] = test system: EBV lytic cycle proteins ZEBRA and EA-D in EBV-positive HH514-16 Burkitt lymphoma cell line; experiment: Immunoblotting for ZEBRA and EA-D in HH514-16 cells induced with AZA; details: HH514-16, varying concentrations 2 hours before AZA for 24 hours, FIG. 2
Description: (§1) Cells were harvested and subjected to immunoblotting with monoclonal antibodies to ZEBRA and EA-D (Early antigen-diffuse).

[6] = test system: EBV lytic cycle (ZEBRA) in EBV-positive HH514-16 Burkitt lymphoma cell line; experiment: Flow cytometry for ZEBRA in HH514-16 cells, lytic cycle induced with sodium butyrate; details: for Percent positive cells ZEBRA: 2 h pretreatment
Description: Cells were harvested, fixed and permeabilized, stained with a monoclonal antibody to the viral latent-to-lytic switch protein ZEBRA (Z EBV Replication Activator), and examined by flow cytometry. ZEBRA is an early lytic protein of EBV, encoded by BZLFI, that drives the lytic cascade. Cells were stained in parallel with an isotype-matched control antibody for placement of gates. […] Decreasing EBV switching to lytic phase decreases the risk of the B cells developing lymphoma.

[7] = test system: EBV lytic cycle (ZEBRA) in EBV-positive HH514-16 Burkitt lymphoma cell line; experiment: Flow cytometry for ZEBRA in HH514-16 cells, lytic cycle induced with AZA; details: for Percent positive cells ZEBRA: 2 h pretreatment
Description: Cells were harvested, fixed and permeabilized, stained with a monoclonal antibody to the viral latent-to-lytic switch protein ZEBRA (Z EBV Replication Activator), and examined by flow cytometry. Cells were stained in parallel with an isotype-matched control antibody for placement of gates.

[8] = test system: EBV lytic cycle proteins ZEBRA and EA-D in EBV-positive Akata Burkitt lymphoma cell line; experiment: Immunoblotting for ZEBRA and EA-D in Akata cells induced with anti-IgG; details: varying concentrations 2 hours before anti-IgG for 24 hours, FIG. 3
Description: as §1

[9] = HH514-16, varying concentrations 2 hours before sodium butyrate for 24 hours, FIG. 4
[10] = HH514-16, varying concentrations 2 hours before NaB for 24 or 48 hours, FIG. 1

C=CC(=O)N1CCC([C@@H]2CCNc3c(C(N)=O)c(-c4ccc(Oc5ccccc5)cc4)nn32)CC1 [Zanubrutinib]
Cleaved caspase 1 (immunoblot) [1]: significantly reduced
expression of ZEBRA (immunoblot) [1]: significantly reduced
expression of ZEBRA (immunoblot) [2, 9]: significantly reduced
Percent ZEBRA positive cells ([3]; inhibitor conc. 1 μM): 0.65%
Percent ZEBRA positive cells ([3]; inhibitor conc. 10 μM): 0.85%

CC#CC(=O)N1CCC[C@H]1c1nc(-c2ccc(C(=O)Nc3ccccn3)cc2)c2c(N)nccn12 [Acalabrutinib]
Cleaved caspase 1 (immunoblot) [1]: significantly reduced
expression of ZEBRA (immunoblot) [1]: significantly reduced
expression of ZEBRA (immunoblot) [2, 9]: significantly reduced
Percent ZEBRA positive cells ([3]; inhibitor conc. 1 μM): 1.15%
Percent ZEBRA positive cells ([3]; inhibitor conc. 10 μM): 0.92%

C=CC(=O)N1CCC[C@@H](n2nc(-c3ccc(Oc4ccccc4)cc3)c3c(N)ncnc32)C1 [Ibrutinib]
Percent positive cells ZEBRA ([4]; ibrutinib 0.25 μM): 7%
Percent positive cells ZEBRA ([4]; ibrutinib 0.5 μM): 7%
Percent positive cells ZEBRA ([4]; ibrutinib 1 μM): 5.5%
Percent positive cells ZEBRA ([4]; ibrutinib 2 μM): 5.7%
Percent positive cells ZEBRA ([4]; ibrutinib 5 μM): 5.7%
levels of ZEBRA (flow cytometry, in words) ([4]; rabbit-anti human IgG 24 hours, varying concentrations): decreased
expression of EA-D (immunoblot) [5]: significantly reduced
expression of ZEBRA (immunoblot) [5]: significantly reduced
levels of ZEBRA (flow cytometry, in words) ([6]; HH514-16, NaB 24 or 48 hours, varying concentrations): decreased
Percent positive cells ZEBRA ([6]; HH514-16, Sodium Butyrate induction 24 h, ibrutinib 0.25 μM): 13%
Percent positive cells ZEBRA ([6]; HH514-16, Sodium Butyrate induction 24 h, ibrutinib 0.5 μM): 9.5%
Percent positive cells ZEBRA ([6]; HH514-16, Sodium Butyrate induction 24 h, ibrutinib 1 μM): 9.0%
Percent positive cells ZEBRA ([6]; HH514-16, Sodium Butyrate induction 24 h, ibrutinib 2 μM): 8.6%
Percent positive cells ZEBRA ([6]; HH514-16, Sodium Butyrate induction 24 h, ibrutinib 5 μM): 7.0%
Percent positive cells ZEBRA ([6]; HH514-16, Sodium Butyrate induction 48 h, ibrutinib 0.25 μM): 38%
Percent positive cells ZEBRA ([6]; HH514-16, Sodium Butyrate induction 48 h, ibrutinib 0.5 μM): 30%
Percent positive cells ZEBRA ([6]; HH514-16, Sodium Butyrate induction 48 h, ibrutinib 1 μM): 23%
Percent positive cells ZEBRA ([6]; HH514-16, Sodium Butyrate induction 48 h, ibrutinib 2 μM): 22%
Percent positive cells ZEBRA ([6]; HH514-16, Sodium Butyrate induction 48 h, ibrutinib 5 μM): 18%
expression of EA-D (immunoblot) [2, 10]: significantly reduced
expression of ZEBRA (immunoblot) [2, 10]: significantly reduced
expression of ZEBRA (immunoblot) [2, 9]: significantly reduced
Percent ZEBRA positive cells ([3]; inhibitor conc. 0.5 μM): 0.52%
Percent ZEBRA positive cells ([3]; inhibitor conc. 1 μM): 0.73%
levels of ZEBRA (flow cytometry, in words) ([7]; HH514-16, AZA 24 or 48 hours, varying concentrations): decreased
Percent positive cells ZEBRA ([7]; HH514-16, AZA induction 24 h, ibrutinib 0.25 μM): 13%
Percent positive cells ZEBRA ([7]; HH514-16, AZA induction 24 h, ibrutinib 0.5 μM): 11%
Percent positive cells ZEBRA ([7]; HH514-16, AZA induction 24 h, ibrutinib 1 μM): 9.0%
Percent positive cells ZEBRA ([7]; HH514-16, AZA induction 24 h, ibrutinib 2 μM): 10%
Percent positive cells ZEBRA ([7]; HH514-16, AZA induction 24 h, ibrutinib 5 μM): 9.0%
Percent positive cells ZEBRA ([7]; HH514-16, AZA induction 48 h, ibrutinib 0.25 μM): 13%
Percent positive cells ZEBRA ([7]; HH514-16, AZA induction 48 h, ibrutinib 0.5 μM): 13%
Percent positive cells ZEBRA ([7]; HH514-16, AZA induction 48 h, ibrutinib 1 μM): 15%
Percent positive cells ZEBRA ([7]; HH514-16, AZA induction 48 h, ibrutinib 2 μM): 13%
Percent positive cells ZEBRA ([7]; HH514-16, AZA induction 48 h, ibrutinib 5 μM): 14%
expression of EA-D (immunoblot) [8]: significantly reduced
expression of ZEBRA (immunoblot) [8]: significantly reduced
